Laboratory results: patent US10781197B2, “Sulfonamide analogues of galiellalactone” (GLACTONE PHARMA DEVELOPMENT AB, priority 2016, dated 2020)

test system: STAT3 signaling; test: STAT3 Luciferase reporter gene assay; type: cell-based; settings: not given
Description: The ability to inhibit STAT3 signaling of the example compounds in comparison to galiellalactone was evaluated using a STAT3 Luciferase reporter gene assay.
Compounds were tested for dose response activity to determine IC50 at eight different doses (0.03, 0.1, 0.3, 1, 3, 10, 30 and 100 μM) in triplicate on the STAT3 reporter system.
Briefly, the STAT3 reporter/HEK293 cell line was plated in 96-well white plates for 16 h. Cells were pretreated with compounds for 1 h. Cells were then treated with IL-6 to induce STAT3 activation for 16 h. Luciferase activity was measured and analyzed.

Row | SMILES | activity in the STAT3 reporter assay (in words)
1 | Cc1ccc(S(=O)(=O)N(C)[C@@]2(C)C=C3C(=O)O[C@@H]4CC[C@H](C2)[C@]34O)cc1 [Example 23, N-[(4R,7R,9R,11 S)-11-Hydroxy-9-methyl-2-oxo-3-oxatricyclo[5.3.1.0^4,11]undec-1(10)-en-9-yl]-N,4-dimethylbenzene-1-sulfonamide] | significantly reduced or total loss of activity
2 | CC(C)S(=O)(=O)N[C@@]1(C)C=C2C(=O)O[C@@H]3CC[C@H](C1)[C@]23O [Example 24, N-[(4R,7R,9R,11 S)-11-Hydroxy-9-methyl-2-oxo-3-oxatricyclo[5.3.1.0^4,11]undec-1(10)-en-9-yl]propane-2-sulfonamide] | significantly reduced or total loss of activity

same assay, conditions: Homo sapiens; STAT3 reporter/HEK293 cell line, 1 h pretreatment, IL-6 induced for 16 h, luciferase activity; read-out: IC50

Row | SMILES | IC50 [µM]
3 | C[C@]1(NS(=O)(=O)c2ccccc2)C=C2C(=O)O[C@@H]3CCC(C1)[C@]23O (stereo partly drawn) [Example 2, N-[(4R,7R,9R,11S)-11-Hydroxy-9-methyl-2-oxo-3-oxatricyclo[5.3.1.0^4,^11]undec-1(10)-en-9-yl]benzenesulfonamide] | 3
4 | COc1ccc(S(=O)(=O)N[C@@]2(C)C=C3C(=O)O[C@@H]4CCC(C2)[C@]34O)cc1 (stereo partly drawn) [Example 3, N-[(4R,7R,9R,11S)-11-Hydroxy-9-methyl-2-oxo-3-oxatricyclo[5.3.1.0^4,^11]undec-1(10)-en-9-yl]-4-methoxybenzene-1-sulfonamide] | 8.41
5 | C[C@]1(NS(=O)(=O)c2ccccc2[N+](=O)[O-])C=C2C(=O)O[C@@H]3CCC(C1)[C@]23O (stereo partly drawn) [Example 4, N-[(4R,7R,9R,11S)-11-Hydroxy-9-methyl-2-oxo-3-oxatricyclo[5.3.1.0^4,^11]undec-1(10)-en-9-yl]-2-nitrobenzene-1-sulfonamide] | 6.71
6 | C[C@]1(NS(=O)(=O)c2ccc(C(F)(F)F)cc2)C=C2C(=O)O[C@@H]3CCC(C1)[C@]23O (stereo partly drawn) [Example 5, N-[(4R,7R,9R,11S)-11-Hydroxy-9-methyl-2-oxo-3-oxatricyclo[5.3.1.0^4,^11]undec-1(10)-en-9-yl]-4-(trifluoromethyl)benzene-1-sulfonamide] | 1.76
7 | Cc1cccc(S(=O)(=O)N[C@@]2(C)C=C3C(=O)O[C@@H]4CCC(C2)[C@]34O)c1 (stereo partly drawn) [Example 6, N-[(4R,7R,9R,11S)-11-Hydroxy-9-methyl-2-oxo-3-oxatricyclo[5.3.1.0^4,^11]undec-1(10)-en-9-yl]-3-methylbenzene-1-sulfonamide] | 6.76
8 | C[C@]1(NS(=O)(=O)c2ccccc2F)C=C2C(=O)O[C@@H]3CCC(C1)[C@]23O (stereo partly drawn) [Example 7, 2-Fluoro-N-[(4R,7R,9R,11S)-11-hydroxy-9-methyl-2-oxo-3-oxatricyclo[5.3.1.0^4,^11]undec-1(10)-en-9-yl]benzene-1-sulfonamide] | 4.69
9 | C[C@]1(NS(=O)(=O)c2ccc([N+](=O)[O-])cc2)C=C2C(=O)O[C@@H]3CCC(C1)[C@]23O (stereo partly drawn) [Example 8, N-[(4R,7R,9R,11S)-11-Hydroxy-9-methyl-2-oxo-3-oxatricyclo[5.3.1.0^4,^11]undec-1(10)-en-9-yl]-4-nitrobenzene-1-sulfonamide] | 5.05
10 | C[C@]1(NS(=O)(=O)c2ccc(C#N)cc2)C=C2C(=O)O[C@@H]3CCC(C1)[C@]23O (stereo partly drawn) [Example 9, 4-Cyano-N-[(4R,7R,9R,11S)-11-hydroxy-9-methyl-2-oxo-3-oxatricyclo[5.3.1.0^4,^11]undec-1(10)-en-9-yl]benzene-1-sulfonamide] | 9.31
11 | C[C@]1(NS(=O)(=O)c2ccc(Br)cc2)C=C2C(=O)O[C@@H]3CCC(C1)[C@]23O (stereo partly drawn) [Example 10, 4-Bromo-N-[(4R,7R,9R,11S)-11-hydroxy-9-methyl-2-oxo-3-oxatricyclo[5.3.1.0^4,^11]undec-1(10)-en-9-yl]benzene-1-sulfonamide] | 3.2
12 | C[C@]1(NS(=O)(=O)c2ccc(C3=NCCO3)cc2)C=C2C(=O)O[C@@H]3CCC(C1)[C@]23O (stereo partly drawn) [Example 11, 4-(4,5-Dihydro-1,3-oxazol-2-yl)-N-[(4R,7R,9R,11S)-11-hydroxy-9-methyl-2-oxo-3-oxatricyclo[5.3.1.0^4,^11]undec-1(10)-en-9-yl]benzene-1-sulfonamide] | 0.24
13 | Cc1ccc(S(=O)(=O)N[C@@]2(C)C=C3C(=O)O[C@@H]4CCC(C2)[C@]34O)nc1 (stereo partly drawn) [Example 12, N-[(4R,7R,9R,11S)-11-Hydroxy-9-methyl-2-oxo-3-oxatricyclo[5.3.1.0^4,^11]undec-1(10)-en-9-yl]-5-methylpyridine-2-sulfonamide] | 3.38
14 | Cc1ccc(S(=O)(=O)N[C@@]2(C)C=C3C(=O)O[C@@H]4CCC(C2)[C@]34O)cn1 (stereo partly drawn) [Example 13, N-[(4R,7R,9R,11S)-11-Hydroxy-9-methyl-2-oxo-3-oxatricyclo[5.3.1.0^4,^11]undec-1(10)-en-9-yl]-6-methylpyridine-3-sulfonamide] | 5.65
15 | Cc1ccc(S(=O)(=O)N[C@@]2(C)C=C3C(=O)O[C@@H]4CCC(C2)[C@]34O)s1 (stereo partly drawn) [Example 14, N-[(4R,7R,9R,11S)-11-Hydroxy-9-methyl-2-oxo-3-oxatricyclo[5.3.1.0^4,^11]undec-1(10)-en-9-yl]-5-methylthiophene-2-sulfonamide] | 6.78
16 | C[C@]1(NS(=O)(=O)c2ccc(C(F)(F)F)cc2Cl)C=C2C(=O)O[C@@H]3CCC(C1)[C@]23O (stereo partly drawn) [Example 15, 2-Chloro-N-[(4R,7R,9R,11S)-11-hydroxy-9-methyl-2-oxo-3-oxatricyclo[5.3.1.0^4,^11]undec-1(10)-en-9-yl]-4-(trifluoromethyl)benzene-1-sulfonamide] | 2.9
17 | Cc1ccc(S(=O)(=O)N[C@@]2(C)C=C3C(=O)O[C@@H]4CCC(C2)[C@]34O)cc1F (stereo partly drawn) [Example 16, 3-Fluoro-N-[(4R,7R,9R,11S)-11-hydroxy-9-methyl-2-oxo-3-oxatricyclo[5.3.1.0^4,^11]undec-1(10)-en-9-yl]-4-methylbenzene-1-sulfonamide] | 4.5
18 | C[C@]1(NS(=O)(=O)c2ccc(F)cc2)C=C2C(=O)O[C@@H]3CCC(C1)[C@]23O (stereo partly drawn) [Example 17, 4-Fluoro-N-[(4R,7R,9R,11S)-11-hydroxy-9-methyl-2-oxo-3-oxatricyclo[5.3.1.0^4,^11]undec-1(10)-en-9-yl]benzene-1-sulfonamide] | 3.16
19 | C[C@]1(NS(=O)(=O)c2ccc(Cl)cc2)C=C2C(=O)O[C@@H]3CCC(C1)[C@]23O (stereo partly drawn) [Example 18, 4-Chloro-N-[(4R,7R,9R,11S)-11-hydroxy-9-methyl-2-oxo-3-oxatricyclo[5.3.1.0^4,^11]undec-1(10)-en-9-yl]benzene-1-sulfonamide] | 2.26
20 | Cc1ccc(CS(=O)(=O)N[C@@]2(C)C=C3C(=O)O[C@@H]4CCC(C2)[C@]34O)cc1 (stereo partly drawn) [Example 19, N-[(4R,7R,9R,11S)-11-Hydroxy-9-methyl-2-oxo-3-oxatricyclo[5.3.1.0^4,^11]undec-1(10)-en-9-yl]-1-(4-methylphenyl)methanesulfonamide] | 9.69
21 | C[C@]1(NS(=O)(=O)c2ccc(N)cc2)C=C2C(=O)O[C@@H]3CC[C@H](C1)[C@]23O [Example 21, 4-Amino-N-[(4R,7R,9R,11 S)-11-hydroxy-9-methyl-2-oxo-3-oxatricyclo[5.3.1.0^4,11]undec-1(10)-en-9-yl]benzene-1-sulfonamide] | 3.63
22 | C[C@]1(NS(=O)(=O)c2ccc(CO)cc2)C=C2C(=O)O[C@@H]3CC[C@H](C1)[C@]23O [Example 22, N-[(4R,7R,9R,11S)-11-Hydroxy-9-methyl-2-oxo-3-oxatricyclo[5.3.1.0^4,11]undec-1(10)-en-9-yl]-4-(hydroxymethyl)benzene-1-sulfonamide] | 11.4
23 | CC(C)S(=O)(=O)N[C@@]1(C)C=C2C(=O)O[C@@H]3CC[C@H](C1)[C@]23O [Example 24, N-[(4R,7R,9R,11 S)-11-Hydroxy-9-methyl-2-oxo-3-oxatricyclo[5.3.1.0^4,11]undec-1(10)-en-9-yl]propane-2-sulfonamide] | 97
24 | COc1ccc(CN2C(=O)C3=C[C@](C)(NS(=O)(=O)c4ccc(C)cc4)CC4CC[C@@H]2[C@@]34O)cc1 (stereo partly drawn) [Example 25, N-[(4R,7R,9R,11S)-11-hydroxy-3-[(4-methoxyphenyl)methyl]-9-methyl-2-oxo-3-azatricyclo[5.3.1.04,^11]undec-1(10)-en-9-yl]-4-methylbenzene-1-sulfonamide] | 3.7
25 | COc1ccc(CN2C(=O)C3=C[C@](C)(NS(=O)(=O)c4ccc(C(F)(F)F)cn4)CC4CC[C@@H]2[C@@]34O)cc1 (stereo partly drawn) [Example 26, N-[(4R,7R,9R,11S)-11-Hydroxy-3-[(4-methoxyphenyl)methyl]-9-methyl-2-oxo-3-azatricyclo[5.3.1.04,^11]undec-1(10)-en-9-yl]-5-(trifluoromethyl)pyridine-2 sulfonamide] | 8.64
26 | C[C@]1(NS(=O)(=O)c2ccc(C(F)(F)F)cn2)C=C2C(=O)N(Cc3ccc(C#N)cc3)[C@@H]3CC[C@H](C1)[C@]23O [Example 27, N-[(4R,7R,9R,11S)-3-[(4-Cyanophenyl)methyl]-11-hydroxy-9-methyl-2-oxo-3-azatricyclo[5.3.1.0^4,11]undec-1 (10)-en-9-yl]-5-(trifluoromethyl)pyridine-2-sulfonamide] | 8.61

same assay, conditions: STAT3 reporter/HEK293 cell line, 1 h pretreatment, IL-6 induced for 16 h, luciferase activity

Row | SMILES | IC50
27 | Cc1ccc(S(=O)(=O)N(C)[C@@]2(C)C=C3C(=O)O[C@@H]4CC[C@H](C2)[C@]34O)cc1 [Example 23, N-[(4R,7R,9R,11 S)-11-Hydroxy-9-methyl-2-oxo-3-oxatricyclo[5.3.1.0^4,11]undec-1(10)-en-9-yl]-N,4-dimethylbenzene-1-sulfonamide] | inactive

same assay, conditions: listed as example 23

Row | SMILES | activity in the STAT3 reporter assay (in words)
28 | Cc1ccc(S(=O)(=O)N(C)[C@@]2(C)C=C3C(=O)O[C@@H]4CC[C@H](C2)[C@]34O)cc1 [Example 23, N-[(4R,7R,9R,11 S)-11-Hydroxy-9-methyl-2-oxo-3-oxatricyclo[5.3.1.0^4,11]undec-1(10)-en-9-yl]-N,4-dimethylbenzene-1-sulfonamide] | no or low activity

same assay, conditions: listed as example 24

Row | SMILES | activity in the STAT3 reporter assay (in words)
29 | CC(C)S(=O)(=O)N[C@@]1(C)C=C2C(=O)O[C@@H]3CC[C@H](C1)[C@]23O [Example 24, N-[(4R,7R,9R,11 S)-11-Hydroxy-9-methyl-2-oxo-3-oxatricyclo[5.3.1.0^4,11]undec-1(10)-en-9-yl]propane-2-sulfonamide] | no or low activity
